According to patent US20060241108A1, “Substituted phenoxazines and acridones as inhibitors of AKT” (St. Jude Children's Research Hospital, priority 2005, published 2006):

What was measured:
AKT = experiment: Translocation of AKT from cytoplasm to nucleus in Rh1 cells, confocal microscopy; assay type: cell-based, human; settings: 5 μM, 1 hour, IGF-1 10 ng/ml 20 minutes
Protocol: Translocation of AKT in Rh1 cells. Rh1 cells (2×10^5 per chamber) can be grown on 2-well glass chamber slides (available from Falcon, Franklin Lakes, N.J.) in serum-free medium containing fibronectin (10 μg/ml). Preferably after twenty hours, the cells are exposed to DMSO (0.1%, vehicle control) or test compound (e.g., 5 μM of phenoxazine or acridone compound) for one hour and then stimulated with IGF-I (10 ng/ml) for 20 minutes. Cells are preferably washed twice with PBS and fixed in 4% formaldehyde for 30 minutes at room temperature. The samples are then rinsed twice with PBS and permeabilized with 1% Triton X-100 for five minutes at room temperature. After rinsing twice with PBS, the cells are incubated with an anti-AKT antibody (available from Rockland, West Chester, Pa.) (1:50 dilution) for 45 minutes at 37° C. […] After rinsing twice with PBS, the slides can be mounted in media containing TOPRO-3 (also available from Molecular Probes) and analyzed by routine confocal microscopy.
Upon activation, AKT translocates to the nucleus (see, e.g., Biggs et al. Proc. Natl. Acad. Sci. USA 1999;96:7421-7426; Brownawell et al. Mol. Cell. Biol. 2001;21:3534-3546; Brunet et al. Cell 1999;96:857-868; and Rena et al. J. Biol. Chem. 1999;274:17179-17183). […] Cellular localization of AKT may then be assessed, e.g. by confocal microscopy.

[1] = target: T1, recombinant, full length AKT1/PKBα (Homo sapiens, UniProt P31749); experiment: In vitro inhibition of recombinant AKT (GSK-3 fusion protein phosphorylation); assay type: biochemical; settings: 5 μM, pre-incubated two hours on ice
T1 construct: active, recombinant, full length AKT1/PKBα protein; purchased Upstate Biotechnology, Lake Placid, N.Y
T1 sequence (P31749 whole entry, the tested form may be a part): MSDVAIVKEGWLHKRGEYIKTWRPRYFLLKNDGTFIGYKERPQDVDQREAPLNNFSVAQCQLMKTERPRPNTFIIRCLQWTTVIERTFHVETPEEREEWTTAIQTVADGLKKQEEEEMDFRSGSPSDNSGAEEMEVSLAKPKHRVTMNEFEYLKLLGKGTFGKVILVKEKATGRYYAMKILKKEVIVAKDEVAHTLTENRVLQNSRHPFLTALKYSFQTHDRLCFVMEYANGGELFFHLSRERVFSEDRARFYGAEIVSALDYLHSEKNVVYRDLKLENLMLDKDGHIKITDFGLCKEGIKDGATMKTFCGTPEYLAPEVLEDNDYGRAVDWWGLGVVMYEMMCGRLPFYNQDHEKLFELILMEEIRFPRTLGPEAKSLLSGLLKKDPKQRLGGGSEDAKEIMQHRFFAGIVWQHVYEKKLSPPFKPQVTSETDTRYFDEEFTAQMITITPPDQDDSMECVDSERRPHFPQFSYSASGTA
Protocol: In vitro inhibition of recombinant AKT. In vitro kinase assays can be performed using an active, recombinant, full length AKT1/PKBα protein (available from Upstate Biotechnology, Lake Placid, N.Y.) or with an active, recombinant AKT1/PKBα protein, referred to herein as AKT1ΔPH, that lacks the pleckstrin homology domain (also available from Upstate Biotechnology). 10 ng of the recombinant enzyme in 25 μl 1× kinase buffer (25 mM Tris, pH 7.5; 5 mM β-glycerol phosphate; 2 mM dithiothreitol; 0.1 mM Na3VO4; and 10 mM MgCl2) is mixed with 2.5 μl of DMSO and a test compound (5 μM). […] After incubating the suspensions at 30° C. for 30 minutes, the reaction can be terminated by the addition of 3×SDS sample buffer (187.5 mM Tris-HCl, pH 6.8; 6% SDS; 30% glycerol; 150 mM dithiothreitol; and 0.03% bromophenol blue). The samples are then boiled for five minutes. The proteins can be separated on a 12% SDS polyacrylamide gel, and subsequently transferred to a nitrocellulose membrane. The membranes are preferably incubated with rabbit polyclonal anti-phospho-GSK-3α/β (Ser21/9) antibody (available from Cell Signaling Technology, Beverly, Mass., catalog # 9331).
The phosphorylation status of GSK-3 protein can also be used to study the AKT inhibitory activity of phenoxazines (including the phenoxazine compounds listed in Table I above) and acridone compounds. […]

[2] = target: T2, recombinant p-110 gamma enzyme (Homo sapiens, UniProt P48736); experiment: PI 3-kinase assay in vitro; assay type: biochemical; settings: 5 μM; phosphatidylinositol substrate, [γ32P]-ATP, TLC
T2 construct: purchased AG Scientific, San Diego, Calif
T2 sequence (P48736 whole entry, species assumed): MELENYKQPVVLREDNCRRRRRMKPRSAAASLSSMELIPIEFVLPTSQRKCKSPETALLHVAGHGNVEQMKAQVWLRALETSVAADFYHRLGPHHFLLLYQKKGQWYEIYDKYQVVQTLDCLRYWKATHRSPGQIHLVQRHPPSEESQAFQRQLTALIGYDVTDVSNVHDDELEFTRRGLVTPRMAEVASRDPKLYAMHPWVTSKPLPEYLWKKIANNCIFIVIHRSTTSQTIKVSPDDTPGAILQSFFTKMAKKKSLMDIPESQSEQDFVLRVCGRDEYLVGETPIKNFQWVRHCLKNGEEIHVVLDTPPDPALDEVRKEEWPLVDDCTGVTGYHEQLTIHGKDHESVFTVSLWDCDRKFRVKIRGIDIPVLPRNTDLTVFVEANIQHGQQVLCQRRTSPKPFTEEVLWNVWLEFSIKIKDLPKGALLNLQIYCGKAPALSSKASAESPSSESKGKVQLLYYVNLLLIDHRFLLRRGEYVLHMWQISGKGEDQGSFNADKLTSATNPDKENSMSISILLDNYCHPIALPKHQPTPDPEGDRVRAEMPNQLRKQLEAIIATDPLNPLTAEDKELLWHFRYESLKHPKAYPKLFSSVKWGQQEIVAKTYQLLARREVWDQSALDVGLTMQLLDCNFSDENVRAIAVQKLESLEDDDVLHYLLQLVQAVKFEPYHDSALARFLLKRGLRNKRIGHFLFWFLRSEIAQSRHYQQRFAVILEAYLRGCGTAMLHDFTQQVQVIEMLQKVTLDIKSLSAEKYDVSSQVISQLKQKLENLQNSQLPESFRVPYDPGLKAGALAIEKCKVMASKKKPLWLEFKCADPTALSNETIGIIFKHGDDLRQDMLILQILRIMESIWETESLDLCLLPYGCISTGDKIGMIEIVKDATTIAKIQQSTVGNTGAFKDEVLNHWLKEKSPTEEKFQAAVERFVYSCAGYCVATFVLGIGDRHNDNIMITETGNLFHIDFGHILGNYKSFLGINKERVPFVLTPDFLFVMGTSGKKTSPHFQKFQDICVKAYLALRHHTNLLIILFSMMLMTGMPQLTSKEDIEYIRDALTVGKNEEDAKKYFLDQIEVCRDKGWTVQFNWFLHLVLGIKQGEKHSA
Protocol: PI 3-kinase assay. […] 10 μg of phosphatidylinositol (available from Sigma, St. Louis, Mo.) can then be added to each sample, and the incubation preferably continues on ice for an additional 15 minutes. ATP (final concentration 25 μM containing 30 μCi of [γ^32p]-ATP) can be added to each sample, and the reaction mixtures incubated at 37° C. for 10 minutes. Reactions can be terminated by adding 20 μl of 6 N hydrochloric acid. The sample is preferably vortexed, and lipids extracted into 300 μl of MeOH:CHCl3 (1:1) mixture. After mixing gently and spinning at 10,000×g for 5 minutes, 50 μl of the organic phase is preferably spotted onto a silica coated thin layer chromatography (TLC) plate (available from EMD, La Jolla, Calif.) and developed using a solvent system containing CHCl3:MeOH:H2O:NH4OH (60:47:11.3:2). The TLC plate can then be allowed to dry, and the bands analyzed using a Storm 860 phosphoimager (available from Amersham Biosciences, Sunnyvale, Calif.).
Lipids in such assays can be resolved by thin layer chromatography (TLC), and incorporated radiolabel quantitated using a phosphoimager.

| Compound | nuclear localization of AKT (AKT) | inhibition of GSK-3 phosphorylation by recombinant AKT [1] | PI 3-kinase activity [2] |
| --- | --- | --- | --- |
| 10-[4′-[(β-hydroxyethyl)piperazino]butyl]-2-chlorophenoxazine [Compound 15B] | block in nuclear localization occurs | completely blocked | comparable to the untreated sample |
| CCN(CC)CCCCN1c2ccccc2Oc2ccc(Cl)cc21 [Compound 10B, 10-[4′-(N-diethylamino)butyl]-2-chlorophenoxazine] | block in nuclear localization occurs | at least nearly complete | comparable to the untreated sample |
